Laboratory results published in patent US20220107328A1, “METHODS OF TREATING LIVER DISEASES” (Camp4 Therapeutics Corporation, priority 2018, published 2022).

What was measured:
[1] = tested on: multiple human tumor cell types; settings: combined with cytotoxic, hormonal, and targeted agents; cited from earlier work
MMP2 mRNA = assay: qRT-PCR of fibrosis related genes in stellate cells, MMP2; assay type: cell-based, human; settings: stellate cells P7, 0.5 μM, 18 hours
Method: (§1) Stellate cells P7 were treated with 0.5 μM of each of the indicated compounds for 18 hours. Cells were processed for RNA extraction and qRT-PCR as previously described. The assay was repeated in triplicate.

COL1A2 mRNA = assay: qRT-PCR of fibrosis related genes in stellate cells, COL1A2; assay type: cell-based, human; settings: stellate cells P7, 0.5 μM, 18 hours
Method: as §1

PNPLA3 mRNA [2] = assay: qRT-PCR of PNPLA3 mRNA in compound-treated primary human hepatocytes; settings: for Primary Hepatocytes 4178 PNPLA3 (fold change in mRNA expression): donor 4178, 3 μM; for Primary Hepatocytes 4178 PNPLA3 (fold change in mRNA expression) / Primary Hepatocytes 4282 PNPLA3 (fold change in mRNA expression): relative to GUSB; for Primary Hepatocytes 4282 PNPLA3 (fold change in mRNA expression): donor 4282, 3 μM
Method: (§4) Cryopreserved hepatocytes were cultured in plating media for 16 hours, transferred to maintenance media for 4 hours. Cultured on serum-free media for 2 hours, then a compound was added. The hepatocytes were maintained on the serum-free media for 16 hours prior to gene expression analysis.
(§5) Human hepatocytes cultured as described above were plated in 24-well format, adding 375,000 cells per well in a volume of 500 μl plating medium. Four hours before treatment, cells were washed with PBS and the medium was changed to either: fresh maintenance medium (complete) or modified maintenance medium.
(§6) Compound stocks were prepared at 1000× final concentration and added in a 2-step dilution to the medium to reduce risk of a compound precipitating out of solution when added to the cells, and to ensure reasonable pipetting volumes. One at a time, each compound was first diluted 10-fold in warm (about 37° C.) modified maintenance medium (initial dilution=ID), mixed by vortexing, and the ID was diluted 100-fold into the cell culture (e.g. 5.1 μl into 1 well of a 24-well plate containing 0.5 mL medium). The plate was mixed by carefully swirling and after all wells were treated and returned to the incubator overnight. If desired, separate plates/wells were treated with vehicle-only controls and/or positive controls. If using multi-well plates, controls were included on each plate. After about 18 hours, cells were harvested for further analysis, e.g., ChIP-seq, RNA-seq, ATAC-seq, etc.
Analysis of the fold changes in expression as measured by qRT-PCR were performed using the technique below. The control was DMSO, and the treatment was the selected compound (CPD). The internal control was GAPDH or B-Actin (or otherwise indicated), and the gene of interest is the target. First, the averages of the 4 conditions were calculated for normalization: DMSO:GAPDH, DMSO:Target, CPD: GAPDH, and CPD:Target. Next, the ΔCT of both control and treatment were calculated to normalize to internal control (GAPDH) using (DMSO:Target)−(DMSO:GAPDH)=ΔCT control and (CPD:Target)−(CPD: GAPDH)=ΔCT experimental. Then, the ΔΔCT was calculated by ΔCT experimental−ΔCT control. The Expression Fold Change (or Relative Quantification, abbreviated as RQ) was calculated by 2−(ΔΔCT) (2-fold expression change was shown by RNA-Seq results provided herein).
The aim of the validation studies was to test the identified compounds from key pathways, and expand the compound franchise to identify other potential hits. Candidate compounds were subjected to validation with qRT-PCR in human hepatocytes. qRT-PCR was performed on samples of primary human hepatocytes from a second donor treated with the candidate compounds. Compounds were tested at concentrations ranging from 0.01 μM to 50 μM, with the majority tested at 10 μM.
Primary human hepatocytes and stellate cells were also incubated with inhibitors of the TGFβ pathway and PNPLA3 gene expression changes assessed via qRT-PCR as previously described. In addition, primary hepatocytes and stellate cells were treated with TGFβ-ligand alone or with selected the small molecule inhibitors for 18 hours and subsequently harvested. for gene expression assays.
The other set was harvest for mRNA processing as previously described.

PNPLA3 mRNA [3] = assay: qRT-PCR of PNPLA3 mRNA in compound-treated mouse hepatocytes; assay type: cell-based; settings: mouse hepatocytes, 1 μM, normalized to ACTB
TIM2 mRNA = assay: qRT-PCR of fibrosis related genes in stellate cells, TIM2; assay type: cell-based, human; settings: stellate cells P7, 0.5 μM, 18 hours
Method: as §1

PNPLA3 mRNA [4] = assay: qRT-PCR of PNPLA3 mRNA in human primary hepatic stellate cells; assay type: cell-based; settings: for Primary Stellate cells PNPLA3 (fold change in mRNA expression): 3 μM, relative to GAPDH; for Relative mRNA PNPLA3: stellate cells P7, 0.5 μM
TGFB1 mRNA = assay: qRT-PCR of fibrosis related genes in stellate cells, TGFB1; assay type: cell-based, human; settings: stellate cells P7, 0.5 μM, 18 hours
Method: as §1

PCSK9 mRNA = assay: qRT-PCR of PCSK9 mRNA in primary hepatocytes; assay type: cell-based, human; settings: donor 4178, 3 μM, relative to GUSB
COL1A1 mRNA = assay: qRT-PCR of COL1A1 mRNA in human primary hepatic stellate cells; assay type: cell-based; settings: for Primary Stellate cells COL1A1 (fold change in mRNA expression): 3 μM, relative to GAPDH; for Relative mRNA COL1A1: stellate cells P7, 0.5 μM
Method: Cells were plated at a density of 17000 cells/well in a 96-well plate and allowed to adhere overnight. The following day cell culture media was replenished with the indicated concentration(s) of compound for 18 hours. […] Medium was removed after 18 hours and cells were processed for further analysis, e.g. qRT-PCR.
Analysis of the fold changes in expression as measured by qRT-PCR were performed using the technique below. The control was DMSO, and the treatment was the selected compound (CPD). The internal control was GAPDH or B-Actin (or otherwise indicated), and the gene of interest is the target. First, the averages of the 4 conditions were calculated for normalization: DMSO:GAPDH, DMSO:Target, CPD: GAPDH, and CPD:Target. Next, the ΔCT of both control and treatment were calculated to normalize to internal control (GAPDH) using (DMSO:Target)−(DMSO:GAPDH)=ΔCT control and (CPD:Target)−(CPD: GAPDH)=ΔCT experimental. Then, the ΔΔCT was calculated by ΔCT experimental−ΔCT control.
Candidate compounds were tested in stellate cells for their ability to modulate PNPLA3 and COL1A1. Stellate cells were treated with serial dilutions of the compounds, ranging from 0.1 μM to 100 μM. Changes in PNPLA3 (or COL1A1) mRNA levels in stellate cells were analyzed with qRT-PCR.

ACTA2 mRNA = assay: qRT-PCR of fibrosis related genes in stellate cells, ACTA2; assay type: cell-based, human; settings: stellate cells P7, 0.5 μM, 18 hours
Method: as §1

[5] = tested on: PNPLA5 mRNA in mouse liver; assay: High sucrose diet mouse dose response study, liver PNPLA5 mRNA; assay type: in vivo; settings: HS diet mice, 6 hours post dose
Method: (§2) C57BL/6J mice were divided into 14 groups. Each group had 6 male mice. All mice were given an HS diet at night on a synchronized schedule. […] The animals received no food at night on Day 10.
(§3) Mouse liver tissues were pulverized in liquid nitrogen and aliquoted into small microtubes. TRIzol (Invitrogen Cat #15596026) was added to the tubes to facilitate cell lysis from tissue samples. The TRIzol solution containing the disrupted tissue was then centrifuged and the supernatant phase was collected. Total RNA was extracted from the supernatant using Qiagen RNA Extraction Kit (Qiagen Cat #74182) and the target mRNA levels were analyzed using qRT-PCR. mRNA levels for PNPLA3, PNPLA5, COL1A1, and PCSK9 were assessed.

[6] = tested on: PNPLA3 mRNA in mouse liver; assay: High sucrose diet mouse pharmacology study, liver PNPLA3 mRNA; assay type: in vivo; settings: HS diet mice
Method: LY2157299 was also tested in vivo. C57BL/6J mice were divided into […]. Each group had 6 male mice. […] Groups 1-10 received food throughout the dosing period. […] Eyes were also collected for groups 11-14.
Mouse liver tissues were pulverized in liquid nitrogen and aliquoted into small microtubes. TRIzol (Invitrogen Cat #15596026) was added to the tubes to facilitate cell lysis from tissue samples. The TRIzol solution containing the disrupted tissue was then centrifuged and the supernatant phase was collected. Total RNA was extracted from the supernatant using Qiagen RNA Extraction Kit (Qiagen Cat#74182) and the PNPLA3 mRNA levels were analyzed using qRT-PCR.
as §2, §3

[7] = High sucrose diet mouse pharmacology study, toxicity; settings: OSI-027 50 mg/kg, PF-04691502 10 mg/kg, LY2157299 75 mg/kg, QD oral gavage four days
Method: C57BL/6J mice were divided into 12 groups. Each group had 6 male mice. All mice were given a high sucrose (HS) diet at night on a synchronized schedule. The diet regimen was initiated 6 days prior to dosing. Starting Day 7, mice were administered with a single concentration of a candidate compound four times QD daily via oral gavage for four consecutive days. […] Groups 1-10 received food throughout the dosing period. Groups 11-14 received food for three out of the four nights of the dosing and were fed the following morning along with the final dose of the drug. Mice in groups 1-10 were sacrificed 12 hours post-last dose on Day 11, and mice in groups 11-14 were sacrificed 6 hours post-last dose on Day 11. Organs including liver, spleen, kidney, adipose, plasma, and muscle were collected. Eyes were also collected for groups 11-14.

[8] = tested on: PCSK9 mRNA in mouse liver; assay: High sucrose diet mouse dose response study, liver PCSK9 mRNA; assay type: in vivo; settings: HS diet mice, 6 hours post dose
Method: as §2, §3

[9] = tested on: ANGPTL3 mRNA in mouse liver; assay: High sucrose diet mouse dose response study, liver ANGPTL3 mRNA; assay type: in vivo; settings: HS diet mice, 6 hours post dose
[10] = tested on: COL1A1 mRNA in mouse liver; assay: High sucrose diet mouse dose response study, liver COL1A1 mRNA; assay type: in vivo; settings: HS diet mice, 6 hours post dose
Method: as §2, §3

PNPLA3 expression = assay: RNA-seq of compound-treated primary human hepatocytes; assay type: cell-based; settings: PNPLA3 expression, RNA-seq
Method: as §4, §5, §6
The expression level of each gene was quantified with normalized FPKM (fragments per kilobase of exon per million mapped fragments). The differentially expressed genes were called using Cuffdiff v2.2.1 with q value<0.01 and log2 fold change>=1 or <=−1.
To identify small molecules that modulate PNPLA3, primary human hepatocytes were prepared as a monoculture, and at least one small molecule compound was applied to the cells.
RNA-seq was performed to determine the effects of the compounds on PNPLA3 expression in hepatocytes. Fold change was calculated by dividing the level of expression in the cell system that had been perturbed by the level of expression in an unperturbed system. Changes in expression having a p-value≤0.05 were considered significant.

[11] = tested on: COL1A1 mRNA in mouse liver; assay: In vivo compound testing in wild-type mice, liver COL1A1 mRNA; settings: 50 mg/kg once daily, oral gavage, four days; GFAP as control
Method: A group of 6 mice (C57BL/6J strain), 3 male and 3 female, were administered with a candidate compound once daily via oral gavage for four consecutive days. Mice were sacrificed 4 hours post-last dose on the fourth day. Organs including liver, spleen, kidney, adipose, plasma were collected. Mouse liver tissues were pulverized in liquid nitrogen and aliquoted into small microtubes. TRIzol (Invitrogen Cat #15596026) was added to the tubes to facilitate cell lysis from tissue samples. The TRIzol solution containing the disrupted tissue was then centrifuged and the supernatant phase was collected. Total RNA was extracted from the supernatant using Qiagen RNA Extraction Kit (Qiagen Cat #74182) and the target mRNA levels were analyzed using qRT-PCR.
Candidate compounds were administered at an appropriate dose once daily to a group of wild-type mice consisting of 3 male and 3 female mice. Mice were sacrificed on the fourth day and liver tissue was collected and analyzed for PNPLA3 (or COL1A1) expression by qRT-PCR. […] When COL1A1 was analyzed, a stellate cell specific gene GFAP was used as a house-keeping control.

[12] = hepatic stellate cells, 0.01 μM
[13] = hepatic stellate cells, serial dilutions, 18 hours

| Structure (SMILES) | Relative mRNA MMP2 (MMP2 mRNA) | Relative mRNA COL1A2 (COL1A2 mRNA) | Primary Hepatocytes 4178 PNPLA3 (fold change in mRNA expression) (PNPLA3 mRNA [2]) | Primary Hepatocytes 4282 PNPLA3 (fold change in mRNA expression) (PNPLA3 mRNA [2]) | Relative mRNA TIMP2 (TIM2 mRNA) | Primary Stellate cells PNPLA3 (fold change in mRNA expression) (PNPLA3 mRNA [4]) | Relative PNPLA3 mRNA levels RQ (PNPLA3 mRNA [4]; [12]) | Relative PNPLA3 mRNA levels RQ (PNPLA3 mRNA [4]; hepatic stellate cells, 0.1 μM) | Relative PNPLA3 mRNA levels RQ (PNPLA3 mRNA [4]; hepatic stellate cells, 1 μM) | Relative PNPLA3 mRNA levels RQ (PNPLA3 mRNA [4]; hepatic stellate cells, 10 μM) | Relative mRNA PNPLA3 (PNPLA3 mRNA [4]; 18 hours) | Relative mRNA TGFB1 (TGFB1 mRNA) | Primary Hepatocytes 4178 PCSK9 (fold change in mRNA expression) (PCSK9 mRNA) | Primary Stellate cells COL1A1 (fold change in mRNA expression) (COL1A1 mRNA) | Relative COL1A1 mRNA levels RQ (COL1A1 mRNA; [12]) | Relative COL1A1 mRNA levels RQ (COL1A1 mRNA; hepatic stellate cells, 0.1 μM) | Relative COL1A1 mRNA levels RQ (COL1A1 mRNA; hepatic stellate cells, 1 μM) | Relative COL1A1 mRNA levels RQ (COL1A1 mRNA; hepatic stellate cells, 10 μM) | Relative mRNA COL1A1 (COL1A1 mRNA; 18 hours) | Relative mRNA ACTA2 (ACTA2 mRNA) | also measured |
| --- | --- | --- | --- | --- | --- | --- | --- | --- | --- | --- | --- | --- | --- | --- | --- | --- | --- | --- | --- | --- | --- |
| C[C@@]1(C(=O)Nc2ccc(F)nc2)CCCN1c1nc(Nc2cc(C3CC3)[nH]n2)c2cccn2n1 [BMS-754807] |  |  |  |  |  |  |  |  |  |  |  |  |  |  |  |  |  |  |  |  | combination index [1]: < 1.0 |
| CC(C)n1nc(-c2ccc3oc(N)nc3c2)c2c(N)ncnc21 [INK-128] | 1.53 ± 0.05 | 0.30 ± 0.01 | 1.50 | 1.63 | 1.26 ± 0.01 | 0.56 | 0.40 | 0.28 | 0.58 | 0.58 | 0.28 ± 0.01 | 1.20 ± 0.02 | 0.98 | 0.47 | 1.05 | 0.27 | 0.32 | 0.21 | 0.23 ± 0.01 | 0.61 ± 0.02 | Relative PNPLA3 mRNA levels (PNPLA3 mRNA [3]): 0.30 ± 0.14 |
| Cc1cccc(-c2nn3c(c2-c2ccnc4ccc(C(N)=O)cc24)CCC3)n1 [LY2157299, Galunisertib] |  |  |  |  |  |  |  |  |  |  |  |  |  |  |  |  |  |  |  |  | PNPLA5 liver mRNA, dose titration (in words) [5]: did not show a significant decrease in PNPLA3 or PNPLA5 mRNA; PNPLA3 expression, co-treatment with TGFβ-ligand (in words) (PNPLA3 mRNA [2]; hepatocytes, TGFb-ligand-induced expression): PNPLA3 expression was reduced; PNPLA3 liver mRNA, 12 hours post-dose (in words) ([6]; QD oral gavage four days, OSI-027 50 mg/kg, PF-04691502 10 mg/kg, LY2157299 75 mg/kg): reduced PNPLA3 mRNA at 12 hours post-dose; PNPLA3 liver mRNA, dose titration (in words) ([6]; decreasing doses QD oral gavage four days, 6 hours post dose): did not show a significant decrease in PNPLA3 or PNPLA5 mRNA; toxicity in animals [7]: did not show toxicity; PCSK9 liver mRNA, dose titration (in words) [8]: three lower doses (50 mg/kg, 25 mg/kg, and 10 mg/kg) resulted in a decrease in PCSK9 mRNA; ANGPTL3 liver mRNA, dose titration (in words) [9]: decrease in COL1A1 and ANGLPTL3 mRNA; COL1A1 liver mRNA, dose titration (in words) [10]: decrease in COL1A1 and ANGLPTL3 mRNA |
| CNC(=O)Nc1ccc(-c2nc(N3CC4CCC(C3)O4)c3cnn(C4CCC5(CC4)OCCO5)c3n2)cc1 [WYE-125132] | 1.33 ± 0.02 | 0.27 ± 0.00 | 0.43 | 0.70 | 1.01 ± 0.07 | 0.54 | 0.44 | 0.36 | 0.42 | 0.42 | 0.20 ± 0.01 | 1.10 ± 0.03 | 0.43 | 0.46 | 0.92 | 0.42 | 0.26 | 0.29 | 0.22 ± 0.01 | 0.54 ± 0.01 | Fold change (Log 2) vs untreated (PNPLA3 expression): −0.86; Relative PNPLA3 mRNA levels (PNPLA3 mRNA [2]; 1 μM of WYE-125132, human hepatocytes, qRT-PCR, mean of three replicates ± standard deviation): 0.67 ± 0.09; PNPLA3 expression by reported compound specificity (in words) (PNPLA3 mRNA [2]; summary of mTOR/PI3K inhibitor testing): did decrease PNPLA3 expression; PNPLA3 mRNA levels (in words) (PNPLA3 mRNA [4]; [13]): decreased both PNPLA3 and COL1A1 in HSCs in a dose-dependent manner; COL1A1 expression (in words) (COL1A1 mRNA; [13]): decreased both PNPLA3 and COL1A1 in HSCs in a dose-dependent manner; COL1A1 expression in mouse liver (in words) [11]: reduced COL1A1 expression in mouse liver |
